Results: patent US11008325B2, “Inhibitors of cancer invasion, attachment, and/or metastasis” (VIRGINIA COMMONWEALTH UNIVERSITY, priority 2016, dated 2021)
“Also recorded” adds a separate entry of the source.

Key:
[1] = tested on: HCC-driven tumor xenograft; experiment: HCC tumor xenograft, alone or with sorafenib; format: in vivo, athymic nude mice; conditions: in combination with sorafenib, I.P.
Method: FIGS. 48A-48C. Biological effects of PDZ1i in vivo in melanoma, HCC and PC. FIG. 48A) Compounds were administered I.P. 6 times within first two weeks following inoculation (I.V. injection) of B16 cells in C57BL/6 mice to evaluate the anti-metastatic efficacy. FIG. 48B) HCC-driven tumor xenograft was established in athymic nude mice. Compound alone or in combination with Sorafenib were given through I.P. Tumor volumes were considered as an end point of this study. FIG. 48C) Hi-Myc, a mouse model for spontaneous prostate cancer either received the compound or vehicle at the age of 8 weeks (immediate after onset of disease) for total 9 injections (3/week). After 16 weeks from the first injection, prostate were collected and pathologically evaluated. Representative photomicrographs (Left panel) and H and E stained slides (Right panel) from prostate were presented.

[2] = tested on: RM1-Luc cells; experiment: RM1-Luc intracardiac metastasis model; format: in vivo, C57BL/6 mice; conditions: I.P., 3 injections/first week
Method: FIG. 19A-19F. PDZ1i suppresses prostate cancer metastasis and tumor progression. FIG. 19A) Survival data for athymic nude mice in which DMSO or PDZ1i pre-treated ARCaPM cells were injected. FIG. 19B) Survival data for athymic nude mice which were injected with (n=5, each group) ARCaPM-Luc (1×10^6 cells in 100 μl saline) through an intracardiac route. Mice received either vehicle or PDZ1i every alternative day (9 injections during the first […]) and maintained until they needed to be euthanized. FIG. 19C) Survival data for C57BL/6 mice injected through the intracardiac route with RM1-Luc. Vehicle or PDZ1i was administered through intraperitoneal injection every alternate day (total 3 injections during the first week). Survival curves were generated using 6 control vehicle-treated and 5 PDZ1i-treated. Kaplan—Meier survival curves were prepared using Graph Pad software. […] Graphical representation of the average prostate weights from control and treated groups. FIG. 19E and FIG. 19F) Photomicrographs representing the histological changes in prostate sections obtained from 6-month old Hi-Myc mice receiving either vehicle (FIG. 19E) or PDZ1i (FIG. 19F). To evaluate potential therapeutic efficacy of PDZ1i four sets of in vivo experiments were conducted. […]

[3] = tested on: U87 cells; experiment: trans-well Matrigel invasion assay; format: cell-based, human
Method: FIGS. 7A-7B. FIG. 7A. Im-PHFA, primary immortal human fetal astrocyte cells were infected with an MDA-9/Syntenin expression plasmid carrying adenovirus. 48 hrs post-infection both the control and MDA-9/Syntenin overexpressing cells were treated with DMSO or PDZ1i followed by seeding in a trans-well Matrigel invasion assay and stained after 24 hrs. FIG. 7B. T98G and U87 were treated with DMSO or PDZ1i and seeding in a trans-well Matrigel invasion assay and stained after 24 hrs. Invasion was quantified from 4 random fields. Data represents fold changes and average±S.D.
FIGS. 8A-8D. PDZ1i produces similar effects to mda-9/syntenin knockdown post-radiation. FIG. 8A. ImPHFA and U87 cells were treated with 50 μM PDZ1i 2 h prior to radiation and analyzed for colony formation after 14 d. […] U87 cells were treated with 50 μM PDZ1i 2 h prior to radiation and analyzed via MTT assay after 24 h. […] Invasion was quantified from 5 random fields in FIG. 8D. […]
Invasion was measured using 24-well BioCoat cell culture inserts (BD Biosciences, Bedford, Mass.) with an 8-μm-porosity polyethylene terephthalate membrane coated with Matrigel Basement Membrane Matrix (100 μg/cm^2). […] Cells remaining on the upper surface of the filters were removed by wiping with a cotton swab, and invasion was determined by counting the cells that migrated to the lower side of the filter using at least 5 fields per insert at 100× magnification. […]

Cc1cc(NC(=O)c2nc3[nH]c4c(c(=O)n3n2)CCC4)c(C)cc1NC(=O)CCc1nnc(-c2ccccc2)o1 [113B7, N-(2,5-dimethyl-4-(3-(5-phenyl-1,3,4-oxadiazol-2-yl)propanamido)phenyl)-8-oxo-5,6,7,8-tetrahydro-4H-cyclopenta[d][1,2,4]triazolo[1,5-a]pyrimidine-2-carboxamide]
HCC tumor growth [1]: synergistically inhibited HCC growth; also recorded: inhibit HCC tumor growth | tumor burden in the lungs [2]: significantly reduced the tumor burden in the lungs | radiation-induced invasion gains ([3]; 50 μM PDZ1i 2 h prior to 2 and 5 Gy): abolished these invasion gains | invasion ([3]; PDZ1i versus DMSO): effectively inhibited invasion
